From patent US10882856B2 (BeiGene, Ltd., priority 2017, dated 2021)

What was measured:
[1] = target: T1, cellular TDO2 in HEK293-TDO2 cells (Homo sapiens, UniProt P48775); assay: 293-TDO2 cell-based assay (Kyn colorimetric); settings: 48 hours of incubation
T1 construct: expressed in transfected cells; host or cells: HEK293 (ATCC), stably transfected
How it was run: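 Kyn formed from L-Trp was read colorimetrically at 480 nm (TCA deproteinisation, then 2% 4-(dimethylamino)benzaldehyde). Compounds were added to 293-TDO2 cells 4 h post-seeding and left 48 h at 37° C. A four-parameter logistic model gave IC50 values.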

IDO1 [2] = target: T2, IDO1 (Homo sapiens, UniProt P14902); assay: IDO1 enzymatic assay; type: biochemical; parameters: His tag (N); made in house; host or cells: E. coli; settings: read-out: Enzyme IC50 IDO1
T2 sequence (P14902 whole entry): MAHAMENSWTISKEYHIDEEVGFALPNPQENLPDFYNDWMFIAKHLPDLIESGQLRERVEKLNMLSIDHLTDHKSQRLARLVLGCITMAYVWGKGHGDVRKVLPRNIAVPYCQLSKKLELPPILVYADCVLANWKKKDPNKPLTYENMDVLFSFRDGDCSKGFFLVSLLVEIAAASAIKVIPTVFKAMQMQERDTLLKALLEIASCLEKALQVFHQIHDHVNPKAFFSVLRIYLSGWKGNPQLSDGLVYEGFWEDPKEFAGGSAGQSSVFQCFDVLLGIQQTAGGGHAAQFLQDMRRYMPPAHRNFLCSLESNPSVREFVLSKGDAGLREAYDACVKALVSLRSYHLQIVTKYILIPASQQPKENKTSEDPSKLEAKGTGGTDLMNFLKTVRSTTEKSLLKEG
How it was run: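 IC50 values reflect remaining IDO1 activity over increasing compound concentrations. The enzyme (50 nM, N-terminally His-tagged, purified from E. coli) was incubated for 1.5 hours at 24 °C with compound, 1.3 mM D-tryptophan, 5 mM L-ascorbic acid, methylene blue and 0.4 mg/mL catalase in 50 mM potassium phosphate pH 7.5 with 0.1% BSA. The slope of N'-formylkynurenine formation, read continuously at 321 nm for 1 hour, served as activity.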

IDO1 [3] = target: T2, IDO1; assay: Hela cell-based IDO1 assay; settings: Hela cells
How it was run: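 HeLa cells were seeded at 8000 per well in 96-well plates in phenol red-free DMEM with 10% FBS. After 4 hours, DMSO-diluted compound dilutions were added with IFN-γ (final 100 ng/mL) and 0.4 mM L-Trp, and cells were kept 48 hours at 37 °C, 5% CO2. Supernatant was deproteinised with trichloroacetic acid, and kynurenine was measured at 480 nm after adding 2% 4-(dimethylamino)benzaldehyde. Potency came from four-parameter logistic fits in XLfit.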

T1 sequence (P48775 whole entry): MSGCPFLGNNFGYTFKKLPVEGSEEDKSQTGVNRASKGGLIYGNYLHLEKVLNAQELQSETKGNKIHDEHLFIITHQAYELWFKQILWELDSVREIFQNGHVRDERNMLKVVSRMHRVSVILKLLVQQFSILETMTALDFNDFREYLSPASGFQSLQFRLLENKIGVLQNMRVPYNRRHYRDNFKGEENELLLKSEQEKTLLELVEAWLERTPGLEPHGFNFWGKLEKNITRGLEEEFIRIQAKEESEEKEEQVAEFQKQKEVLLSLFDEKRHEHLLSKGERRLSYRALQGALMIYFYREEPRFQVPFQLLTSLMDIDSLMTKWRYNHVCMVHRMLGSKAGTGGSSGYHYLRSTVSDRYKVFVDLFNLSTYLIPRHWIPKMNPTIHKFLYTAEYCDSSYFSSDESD

| SMILES | EC50 [1] [nM] | IC50 (IDO1 [2]) [nM] | EC50 (IDO1 [3]) [nM] |
| --- | --- | --- | --- |
| Cc1ccccc1C1CCC(C(O)c2c(C3CC3)ccn3cncc23)CC1 (stereo not drawn) [Example C112, (7-cyclopropylimidazo[1,5-a]pyridin-8-yl)(4-(o-tolyl)cyclohexyl)methanol] | > 10000 | 92 | 285 |
| COc1ccc(N2CCC(C(O)c3c(C4CC4)ccn4cncc34)CC2)cc1 (stereo not drawn) [Example C142, (7-cyclopropylimidazo[1,5-a]pyridin-8-yl)(1-(4-methoxyphenyl)piperidin-4-yl)methanol] | > 10000 | 32 | 267 |
| OC(c1c(C2CC2)ccn2cncc12)C1CCN(c2ccc(F)cc2)CC1 (stereo not drawn) [Example C137, (7-cyclopropylimidazo[1,5-a]pyridin-8-yl)(1-(4-fluorophenyl)piperidin-4-yl)methanol] | > 10000 | 79 | 177 |
| OC(c1c(C2CC2)ccn2cncc12)C1CCN(c2ccc(F)cc2)CC1 (single isomer, unassigned) [Example C137b] | > 10000 | 4100 | > 10000 |
| O[C@@H](c1c(C2CC2)ccn2cncc12)[C@H]1CC[C@H](c2ccc(OC(F)(F)F)cc2)CC1 (single isomer, unassigned) [Example C105b] | > 10000 | 2000 | > 10000 |
| OC(c1c(C2CC2)ccn2cncc12)C1CCC(c2cccc(F)c2)CC1 (racemic) [Example C109, (7-cyclopropylimidazo[1,5-a]pyridin-8-yl)(4-(3-fluorophenyl)cyclohexyl)methanol] | > 10000 | 87 | 100 |
| N#Cc1ccc([C@H]2CC[C@H](C(O)c3c(C4CC4)ccn4cncc34)CC2)cc1 (single isomer, unassigned) [Example C106b] | > 10000 | 2300 | > 10000 |
| OC(c1c(C2CC2)ccn2cncc12)C1CCN(c2ccc(F)c3cccnc23)CC1 (stereo not drawn) [Example C155, (7-cyclopropylimidazo[1,5-a]pyridin-8-yl)(1-(5-fluoroquinolin-8-yl)piperidin-4-yl)methanol] | > 10000 | 61 | 149 |
| OC(c1c(C2CC2)ccn2cncc12)C1CCN(c2ccccc2)CC1 (single isomer, unassigned) [Example C136a] | > 10000 | 21 | 47 |
| O[C@@H](c1c(C2CC2)ccn2cncc12)[C@H]1CC[C@H](c2cccc3ccccc32)CC1 (single isomer, unassigned) [Example C121b] | > 10000 | 1500 | > 10000 |
| O[C@@H](c1c(C2CC2)ccn2cncc12)[C@H]1CC[C@H](c2ccc(Cl)cc2)CC1 (single isomer, unassigned) [Example C102b] | > 10000 | > 10000 | > 10000 |
| O=C(O)c1ccc(N2CCC(C(O)c3c(C4CC4)ccn4cncc34)CC2)cc1 (stereo not drawn) [Example C145, 4-(4-((7-cyclopropylimidazo[1,5-a]pyridin-8-yl)(hydroxy)methyl)piperidin-1-yl)benzoic acid] | > 10000 | 90 | > 10000 |
| OC(c1c(C2CC2)ccn2cncc12)C1CCC(c2cccc(Cl)c2)CC1 (stereo not drawn) [Example C133, (4-(3-chlorophenyl)cyclohexyl)(7-cyclopropylimidazo[1,5-a]pyridin-8-yl)methanol] | > 10000 | 88 | 256 |
| Oc1ccc([C@H]2CC[C@H](C(O)c3c(C4CC4)ccn4cncc34)CC2)cc1 (single isomer, unassigned) [Example C104b] | > 10000 | 5200 | > 10000 |
| OC(c1c(C2CC2)ccn2cncc12)C1CCN(C2CC2)CC1 (stereo not drawn) [Example C139, (7-cyclopropylimidazo[1,5-a]pyridin-8-yl)(1-cyclopropylpiperidin-4-yl)methanol] | > 10000 | 890 | > 10000 |
| OC(c1c(C2CC2)ccn2cncc12)C1CCC(c2ccc(Cl)cc2)CC1 (racemic) [Example C102, (4-(4-chlorophenyl)cyclohexyl)(7-cyclopropylimidazo[1,5-a]pyridin-8-yl)methanol] | > 10000 | 100 | 261 |
| O[C@@H](c1c(C2CC2)ccn2cncc12)[C@H]1CC[C@H](c2ccc(OC3CCCC3)cc2)CC1 (single isomer, unassigned) [Example C118b] | > 10000 | 3000 | > 10000 |
| OC(c1c(C2CC2)ccn2cncc12)C1CCN(c2ccc(F)c3cccnc23)CC1 (single isomer, unassigned) [Example C155a] | > 10000 | 7500 | > 10000 |
| OC(c1c(C2CC2)ccn2cncc12)C1CCN(c2ccc(F)c3ncccc23)CC1 (stereo not drawn) [Example C149, (7-cyclopropylimidazo[1,5-a]pyridin-8-yl)(1-(8-fluoroquinolin-5-yl)piperidin-4-yl)methanol] | > 10000 | 40 | 42 |

The remaining lines, values ahead:

| EC50 [1] [nM] | IC50 (IDO1 [2]) [nM] | EC50 (IDO1 [3]) [nM] | SMILES |
| --- | --- | --- | --- |
| > 10000 | 28 | 344 | NS(=O)(=O)Nc1ccc([C@H]2CC[C@H]([C@H](O)c3c(C4CC4)ccc4cncn34)CC2)cc1 [Example D165, 1-(4-((1 S,4r)-4-((S)-(6-cyclopropylimidazo[1,5-a]pyridin-5-yl)(hydroxy)methyl)cyclohexyl)phenyl) sulfuric diamide] |
| > 10000 | 33 | 443 | COc1ccc([C@H]2CC[C@H](C(O)c3c(C4CC4)ccc4cncn34)CC2)c2ccccc12 (single isomer, unassigned) [Example D139a] |
| > 10000 | 44 | 496 | OC(c1c(C2CC2)ccc2cncn12)C1CCC(c2ccc3sccc3c2)CC1 (stereo not drawn) [Example D133, (4-(benzo[b]thiophen-5-yl)cyclohexyl)(6-cyclopropylimidazo[1,5-a]pyridin-5-yl)methanol] |
| > 10000 | 54 | 462 | OC(c1c(C2CC2)ccc2cncn12)C1CCC(c2ccc(F)c(F)c2F)CC1 (stereo not drawn) [Example D145, (6-cyclopropylimidazo[1,5-a]pyridin-5-yl)(4-(2,3,4-trifluorophenyl)cyclohexyl)methanol] |
| > 10000 | 8260 | 5740 | O[C@@H](c1c(C2CC2)ccc2cncn12)C1CCN(c2ccc(F)cc2)CC1 (single isomer, unassigned) [Example D171b] |
| > 10000 | 32 | 155 | OC(c1c(C2CC2)ccc2cncn12)C1CCC(c2ccc(OC3CCOCC3)cc2)CC1 (stereo not drawn) [Example D114, (6-cyclopropylimidazo[1,5-a]pyridin-5-yl)(4-(4-((tetrahydro-2H-pyran-4-yl)oxy)phenyl)cyclohexyl)methanol] |
| > 10000 | 64 | 668 | OC(c1c(C2CC2)ccc2cncn12)C1CCC(c2ccc(-c3ccccc3)cc2)CC1 (stereo not drawn) [Example D119, (4-([1,1′-biphenyl]-4-yl)cyclohexyl)(6-cyclopropylimidazo[1,5-a]pyridin-5-yl)methanol] |
| > 10000 | 7670 | 5120 | O[C@@H](c1c(C2CC2)ccc2cncn12)[C@H]1CC[C@H](c2ccc(F)c(Cl)c2)CC1 (single isomer, unassigned) [Example D129b] |
| > 10000 | 68 | 648 | OC(c1c(C2CC2)ccc2cncn12)C1CCC(c2cc3ccccc3s2)CC1 (stereo not drawn) [Example D154, (4-(benzo[b]thiophen-2-yl)cyclohexyl)(6-cyclopropylimidazo[1,5-a]pyridin-5-yl)methanol] |
| > 10000 | 34 | 263 | OC(c1c(C2CC2)ccc2cncn12)C1CCC(c2ccc3cccnc3c2)CC1 (stereo not drawn) [Example D161, (6-cyclopropylimidazo[1,5-a]pyridin-5-yl)(4-(quinolin-7-yl)cyclohexyl)methanol] |
| > 10000 | 1600 | 9770 | CN(C)C(=O)c1ccc([C@H]2CC[C@H]([C@@H](O)c3c(C4CC4)ccc4cncn34)CC2)cc1 (single isomer, unassigned) [Example D125b] |
| > 10000 | 14 | 460 | CN(C)C(=O)c1ccc([C@H]2CC[C@H]([C@H](O)c3c(C4CC4)ccc4cncn34)CC2)cc1 (single isomer, unassigned) [Example D125a] |
| > 10000 | 33 | 51 | OC(c1c(C2CC2)ccc2cncn12)C1CCC(c2ccnc3c(F)cccc23)CC1 (stereo not drawn) [Example D164, (6-cyclopropylimidazo[1,5-a]pyridin-5-yl)(4-(8-fluoroquinolin-4-yl)cyclohexyl)methanol] |
| > 10000 | 70 | 87 | OC(c1c(C2CC2)ccc2cncn12)C1CCC(c2csc3ccccc23)CC1 (stereo not drawn) [Example D155, (4-(benzo[b]thiophen-3-yl)cyclohexyl)(6-cyclopropylimidazo[1,5-a]pyridin-5-yl)methanol] |
